Experimental data: patent US20250235456A1, “METHODS OF USE FOR AZA-QUINAZOLINE COMPOUNDS” (Iambic Therapeutics, Inc., priority 2024, published 2025)

Columns and labels:
Format in all cases: biochemical
CDK1/Cyclin B1 = CDK1/Cyclin B1 (Homo sapiens (Human), UniProt P06493); test: CDK1/Cyclin B1 ADP-Glo Kinase Assay
Method: CDK1/Cyclin B1 ADP-Glo Kinase Assay
(§1) The purpose of CDK1/Cyclin Bi assay is to evaluate the inhibition (% inhibition and IC50 values) of small molecule inhibitors by using a Luminescent based ADP-Glo assay. CDK1/Cyclin B1 catalyzes the production of ADP from ATP. ADP-Glo assay monitors ADP producing biochemical reactions. ADP-Glo is performed in 2 steps upon completion of kinase reaction: a combined termination of kinase reaction and depletion of remaining ATP in the first step, and conversion of generated ADP to ATP and the newly produced ATP to light output using luciferase/luciferin reaction in the second step. The luminescent signal generated is proportional to the ADP concentration produced and is correlated with the kinase activity. CDK1/Cyclin B1 was purchased from Carna (Cat 04-102). […] The assay was initiated with the addition of ATP-containing substrate solution, following a 30-minute pre-incubation of enzyme and inhibitor at room temperature in the reaction mixture. The reaction was stopped after 90 minutes at room temperature by the addition of 10 μL of ADP-GLO Reagent. After a 90 minute incubation, 20 μL of Kinase Detection Reagent was added. Samples were incubated for 40 minutes, after which plate well luminescence was measured on a Envision microplate reader. The IC50 determinations were made from a plot of the fractional velocity as a function of inhibitor concentration fit to the 4 parameters IC50 equation.

CDK4/Cyclin D1 = CDK4/Cyclin D1 (Homo sapiens (Human), UniProt P11802); test: CDK4/Cyclin D1 CHEF Assay; details: AQT; read-out: CDK4/CyclinD1 AQT IC50
From the text: CDK4/Cyclin D1 CHEF Assay
The purpose of CDK4/Cyclin Dl assay is to evaluate the inhibition (% inhibition and IC50 values) of small molecule inhibitors by using a Chelation-Enhance Fluorescence (CHEF) assay. In a CHEF assay, phosphorylation of a peptide substrate results in proportional increase in fluorescence. CHEF kinase assay use peptide substrates containing a synthetic alpha-amino acid with a side chain bearing an 8-hydroxyquinoline derivative (sulfonamido-oxide, Sox). Upon phosphorylation of a nearby serine, threonine or tyrosine and in the presence of Mg(II), the spectral properties of the Sox residue are altered, emitting 485 nm wavelength light when excited with a 360 nm wavelength light source. CDK4/Cyclin D1 catalyzes the phosphoryl transfer to the SOX-labeled substrate peptide AQT0258 from Assayquant Technologies. […] The reaction was initiated with the addition of substrate solution, following a 30-minute pre-incubation of enzyme and inhibitor at 22° C. in the reaction mix. Reactions were allowed to proceed for 3 hrs at 22° C., followed by fluorescence read of the reaction. The IC50 determinations were made from a plot of the fractional velocity as a function of inhibitor concentration fit to the 4 parameters IC50 equation.

CDK6/Cyclin D3 = CDK6/Cyclin D3 (Homo sapiens (Human), UniProt Q00534); test: CDK6/Cyclin D3 ADP-Glo Kinase Assay; details: read-out: CDK6/CyclinD3 IC50
Method: CDK6/Cyclin D3 ADP-Glo Kinase Assay
as §1, with “of the CDK6/Cyclin D3” for “of CDK1/Cyclin Bi”, “values) in the presence” for “values)”, “assay. CDK6/Cyclin D3” for “assay. CDK1/Cyclin B1”, “activity. CDK6/Cychin D3” for “activity. CDK1/Cyclin B1”, “from Carna.” for “from Carna (Cat 04-102).”, “a 90-minute” for “a 90 minute”

Chain of CDK4/Cyclin D1 (P11802 whole entry, species assumed): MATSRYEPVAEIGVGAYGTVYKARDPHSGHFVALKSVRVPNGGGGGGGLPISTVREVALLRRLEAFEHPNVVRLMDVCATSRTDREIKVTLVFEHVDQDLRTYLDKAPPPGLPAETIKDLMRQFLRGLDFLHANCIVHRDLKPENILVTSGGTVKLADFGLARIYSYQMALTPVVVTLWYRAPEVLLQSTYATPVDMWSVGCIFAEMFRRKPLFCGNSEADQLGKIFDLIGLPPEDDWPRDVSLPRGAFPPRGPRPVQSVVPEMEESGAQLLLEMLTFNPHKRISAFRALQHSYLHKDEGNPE
Chain of CDK4/Cyclin D1 (P24385 whole entry partner, species assumed): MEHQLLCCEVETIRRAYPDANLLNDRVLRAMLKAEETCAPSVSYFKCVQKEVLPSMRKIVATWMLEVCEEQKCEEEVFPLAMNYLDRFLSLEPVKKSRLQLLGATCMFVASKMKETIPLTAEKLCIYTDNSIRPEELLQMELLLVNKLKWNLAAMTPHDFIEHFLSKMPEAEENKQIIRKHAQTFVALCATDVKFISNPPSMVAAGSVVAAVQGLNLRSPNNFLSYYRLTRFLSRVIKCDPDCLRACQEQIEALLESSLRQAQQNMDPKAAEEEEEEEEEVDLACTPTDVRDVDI
Chain of CDK1/Cyclin B1 (P06493 whole entry): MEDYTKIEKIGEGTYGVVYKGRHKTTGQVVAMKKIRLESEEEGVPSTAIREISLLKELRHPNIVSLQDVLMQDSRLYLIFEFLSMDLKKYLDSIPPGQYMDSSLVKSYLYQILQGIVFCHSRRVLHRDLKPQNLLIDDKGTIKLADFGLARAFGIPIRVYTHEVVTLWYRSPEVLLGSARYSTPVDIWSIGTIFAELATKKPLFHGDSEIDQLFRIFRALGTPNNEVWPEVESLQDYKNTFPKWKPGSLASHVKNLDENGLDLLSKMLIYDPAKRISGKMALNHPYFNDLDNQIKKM
Chain of CDK1/Cyclin B1 (P14635 whole entry partner): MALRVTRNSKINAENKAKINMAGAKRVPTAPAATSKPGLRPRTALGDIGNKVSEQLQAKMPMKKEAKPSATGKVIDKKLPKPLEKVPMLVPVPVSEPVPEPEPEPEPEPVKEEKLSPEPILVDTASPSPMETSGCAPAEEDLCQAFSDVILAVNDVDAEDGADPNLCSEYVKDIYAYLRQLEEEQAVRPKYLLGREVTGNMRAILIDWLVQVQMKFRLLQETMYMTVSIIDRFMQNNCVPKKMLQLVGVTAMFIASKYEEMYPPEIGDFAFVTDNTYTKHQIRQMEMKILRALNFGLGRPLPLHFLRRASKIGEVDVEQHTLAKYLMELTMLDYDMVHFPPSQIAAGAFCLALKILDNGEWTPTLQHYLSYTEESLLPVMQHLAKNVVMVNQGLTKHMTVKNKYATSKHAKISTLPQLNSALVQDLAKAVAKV
Chain of CDK6/Cyclin D3 (Q00534 whole entry): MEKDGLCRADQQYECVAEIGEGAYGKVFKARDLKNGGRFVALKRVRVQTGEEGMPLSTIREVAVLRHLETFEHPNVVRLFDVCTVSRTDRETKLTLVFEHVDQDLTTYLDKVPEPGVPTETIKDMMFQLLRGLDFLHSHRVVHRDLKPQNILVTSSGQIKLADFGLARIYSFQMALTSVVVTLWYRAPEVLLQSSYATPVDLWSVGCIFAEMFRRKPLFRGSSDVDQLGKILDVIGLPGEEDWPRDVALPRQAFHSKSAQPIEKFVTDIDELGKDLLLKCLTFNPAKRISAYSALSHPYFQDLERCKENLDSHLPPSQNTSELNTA
Chain of CDK6/Cyclin D3 (P30281 whole entry partner): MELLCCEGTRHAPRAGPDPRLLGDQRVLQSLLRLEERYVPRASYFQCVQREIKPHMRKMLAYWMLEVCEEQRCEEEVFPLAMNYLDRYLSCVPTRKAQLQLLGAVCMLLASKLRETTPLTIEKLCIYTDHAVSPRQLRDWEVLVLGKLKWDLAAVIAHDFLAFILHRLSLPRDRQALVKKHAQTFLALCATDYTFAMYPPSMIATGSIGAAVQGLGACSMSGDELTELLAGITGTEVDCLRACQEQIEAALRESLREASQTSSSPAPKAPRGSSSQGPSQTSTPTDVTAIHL

Cc1cc2cnc(NC3CCN(S(=O)(=O)C4CC4)CC3)nc2c(N2CC3(C2)CC(C)(O)C3)n1 [Compound 78, 2-(2-((1-(cyclopropylsulfonyl)piperidin-4-yl)amino)-6-methylpyrido[3,4-d]pyrimidin-8-yl)-6-methyl-2-azaspiro[3.3]heptan-6-ol]
IC50 (CDK1/Cyclin B1): 200 to 500 nM | IC50 (CDK4/Cyclin D1): < 200 nM | IC50 (CDK6/Cyclin D3): 200 to 500 nM

COC1CC2(C1)CN(c1nc(C)cc3cnc(NC4CCN(S(=O)(=O)C5CC5)CC4)nc13)C2 [Compound 71, N-(1-(cyclopropylsulfonyl)piperidin-4-yl)-8-(6-methoxy-2-azaspiro[3.3]heptan-2-yl)-6-methylpyrido[3,4-d]pyrimidin-2-amine]
IC50 (CDK1/Cyclin B1): 200 to 500 nM | IC50 (CDK4/Cyclin D1): < 200 nM | IC50 (CDK6/Cyclin D3): < 200 nM

Cc1cc2cnc(NC3CCN(S(C)(=O)=O)CC3)nc2c(N2CC(F)(F)C3(CNC3)C2)n1 [Compound 92, 8-(8,8-difluoro-2,6-diazaspiro[3.4]octan-6-yl)-6-methyl-N-(1-(methylsulfonyl)piperidin-4-yl)pyrido[3,4-d]pyrimidin-2-amine]
IC50 (CDK1/Cyclin B1): < 200 nM | IC50 (CDK4/Cyclin D1): < 200 nM | IC50 (CDK6/Cyclin D3): < 200 nM

Cc1cc2cnc(N[C@H]3CC[C@H](CN(C)C)CC3)nc2c(N2CCC3(C2)CC3(F)F)n1 (stereo partly drawn) [Compound 40, 8-(1,1-difluoro-5-azaspiro[2.4]heptan-5-yl)-N-((1r,4r)-4-((dimethylamino)methyl)cyclohexyl)-6-methylpyrido[3,4-d]pyrimidin-2-amine]
IC50 (CDK1/Cyclin B1): > 2000 nM | IC50 (CDK4/Cyclin D1): < 200 nM | IC50 (CDK6/Cyclin D3): < 200 nM

Cc1cc2cnc(NC3CCN(S(C)(=O)=O)CC3)nc2c(N2CCC3(CCC3(F)F)C2)n1 (stereo not drawn) [Compound 52, 8-(1,1-difluoro-6-azaspiro[3.4]octan-6-yl)-6-methyl-N-(1-(methylsulfonyl)piperidin-4-yl)pyrido[3,4-d]pyrimidin-2-amine]
IC50 (CDK1/Cyclin B1): < 200 nM | IC50 (CDK4/Cyclin D1): < 200 nM | IC50 (CDK6/Cyclin D3): < 200 nM

Cc1cc2cnc(NC3CCN(S(=O)(=O)C4CC4)CC3)nc2c(N2CC(O)(C3CC3)C2)n1 [Compound 56, 3-cyclopropyl-1-(2-((1-(cyclopropylsulfonyl)piperidin-4-yl)amino)-6-methylpyrido[3,4-d]pyrimidin-8-yl)azetidin-3-ol]
IC50 (CDK1/Cyclin B1): < 200 nM | IC50 (CDK4/Cyclin D1): < 200 nM | IC50 (CDK6/Cyclin D3): < 200 nM

Cc1cc2cnc(NC3CCN(S(C)(=O)=O)CC3)nc2c(N2CCC3(CC3)C2)n1 [Compound 54, 6-methyl-N-(1-(methylsulfonyl)piperidin-4-yl)-8-(5-azaspiro[2.4]heptan-5-yl)pyrido[3,4-d]pyrimidin-2-amine]
IC50 (CDK1/Cyclin B1): < 200 nM | IC50 (CDK4/Cyclin D1): < 200 nM | IC50 (CDK6/Cyclin D3): < 200 nM

Cc1cc2cnc(Nc3ccc(CS(C)(=O)=O)cc3)nc2c(N2CC(O)(C3CC3)C2)n1 [Compound 83, 3-cyclopropyl-1-(6-methyl-2-((4-((methylsulfonyl)methyl)phenyl)amino)pyrido[3,4-d]pyrimidin-8-yl)azetidin-3-ol]
IC50 (CDK1/Cyclin B1): 200 to 500 nM | IC50 (CDK4/Cyclin D1): < 200 nM | IC50 (CDK6/Cyclin D3): < 200 nM

Cc1cc2cnc(NC3CCN(S(C)(=O)=O)CC3)nc2c(C2CC(O)(C3CC3)C2)n1 (stereo not drawn) [Compound 88, 1-cyclopropyl-3-(6-methyl-2-((1-(methylsulfonyl)piperidin-4-yl)amino)pyrido[3,4-d]pyrimidin-8-yl)cyclobutan-1-ol]
IC50 (CDK1/Cyclin B1): 200 to 500 nM | IC50 (CDK4/Cyclin D1): < 200 nM | IC50 (CDK6/Cyclin D3): < 200 nM

Cc1cc2cnc(NC3CCN(S(=O)(=O)C4CC4)CC3)nc2c(N2CC(F)(F)C3(CNC3)C2)n1 [Compound 62, N-(1-(cyclopropylsulfonyl)piperidin-4-yl)-8-(8,8-difluoro-2,6-diazaspiro[3.4]octan-6-yl)-6-methylpyrido[3,4-d]pyrimidin-2-amine]
IC50 (CDK1/Cyclin B1): < 200 nM | IC50 (CDK4/Cyclin D1): < 200 nM | IC50 (CDK6/Cyclin D3): < 200 nM

Cc1cc2cnc(NC3CCN(S(=O)(=O)c4cnn(C)c4)CC3)nc2c(N2CC3(CCNCC3(F)F)C2)n1 [Compound 87, 8-(5,5-difluoro-2,7-diazaspiro[3.5]nonan-2-yl)-6-methyl-N-(1-((1-methyl-1H-pyrazol-4-yl)sulfonyl)piperidin-4-yl)pyrido[3,4-d]pyrimidin-2-amine]
IC50 (CDK1/Cyclin B1): < 200 nM | IC50 (CDK4/Cyclin D1): < 200 nM | IC50 (CDK6/Cyclin D3): < 200 nM

Cc1cc2cnc(NC3CCN(S(C)(=O)=O)CC3)nc2c(N2CC3(CNC(=O)C3)C2)n1 [Compound 81, 2-(6-methyl-2-((1-(methylsulfonyl)piperidin-4-yl)amino)pyrido[3,4-d]pyrimidin-8-yl)-2,6-diazaspiro[3.4] octan-7-one]
IC50 (CDK1/Cyclin B1): 200 to 500 nM | IC50 (CDK4/Cyclin D1): < 200 nM | IC50 (CDK6/Cyclin D3): 200 to 500 nM

CS(=O)(=O)N1CCC(Nc2ncc3cc(C(F)F)nc(N4CC5(CNCCC5(F)F)C4)c3n2)CC1 [Compound 65]
IC50 (CDK1/Cyclin B1): < 200 nM | IC50 (CDK4/Cyclin D1): < 200 nM | IC50 (CDK6/Cyclin D3): < 200 nM

Cc1cc2cnc(NC3CCN(S(C)(=O)=O)CC3)nc2c(N2CC3(CCC(=O)NC3)C2)n1 [Compound 82, 2-(6-methyl-2-((1-(methylsulfonyl)piperidin-4-yl)amino)pyrido[3,4-d]pyrimidin-8-yl)-2,6-diazaspiro[3.5] nonan-7-one]
IC50 (CDK1/Cyclin B1): 200 to 500 nM | IC50 (CDK4/Cyclin D1): 200 to 500 nM | IC50 (CDK6/Cyclin D3): 200 to 500 nM

Cc1cc2cnc(NC3CCN(S(C)(=O)=O)CC3)nc2c(N2CCC3(C2)CC(F)(F)C3)n1 [Compound 53, 8-(2,2-difluoro-6-azaspiro[3.4]octan-6-yl)-6-methyl-N-(1-(methylsulfonyl)piperidin-4-yl)pyrido[3,4-d]pyrimidin-2-amine]
IC50 (CDK1/Cyclin B1): > 2000 nM | IC50 (CDK4/Cyclin D1): < 200 nM | IC50 (CDK6/Cyclin D3): < 200 nM

Cc1cc2cnc(NC3CCN(S(C)(=O)=O)CC3)nc2c(N2CC3(C2)CC(C)(O)C3)n1 [Compound 79, 6-methyl-2-(6-methyl-2-((1-(methylsulfonyl)piperidin-4-yl)amino)pyrido[3,4-d]pyrimidin-8-yl)-2-azaspiro[3.3]heptan-6-ol]
IC50 (CDK1/Cyclin B1): 200 to 500 nM | IC50 (CDK4/Cyclin D1): < 200 nM | IC50 (CDK6/Cyclin D3): 200 to 500 nM

Cc1cc2cnc(NC3CCN(S(=O)(=O)C4CC4)CC3)nc2c(N2CC3(CCNCC3(F)F)C2)n1 [Compound 61, N-(1-(cyclopropylsulfonyl)piperidin-4-yl)-8-(5,5-difluoro-2,7-diazaspiro[3.5]nonan-2-yl)-6-methylpyrido[3,4-d]pyrimidin-2-amine]
IC50 (CDK1/Cyclin B1): < 200 nM | IC50 (CDK4/Cyclin D1): < 200 nM | IC50 (CDK6/Cyclin D3): < 200 nM
